Reference: US20200268711A1, “Use Of Carbamate Compound For Reducing Or Treating Developmental Disorders Including Fragile X Syndrome, Angelman Syndrome Or Rett Syndrome” (SK BIOPHARMACEUTICALS CO., LTD., priority 2017, published 2020)

What was measured:
Format in all cases: in vivo
[1] = test system: Fmr1 gene-deficient mouse; experiment: Audiogenic seizure test in Fmr1 gene-deficient mouse model; conditions: for Percent seized / Percent survival / Time to seizure occurrence / Time to respiratory arrest: 30 minutes before the test; for Time to seizure occurrence: 135 dB sound, 300 seconds if seizure does not occur; for Time to respiratory arrest: 300 seconds if mouse survives without respiratory arrest; for Median seizure score (seizure intensity level): compared to the vehicle administration group, score 0-5
Experimental: (§1) Male FVB.129P2-Pde6b^+ Tyr^c-ch Fmr1^tm1Cgr/J gene-deficient mice were purchased from Jackson Laboratories, and audiogenic seizure experiments were performed at 3 weeks of age. After purchase, the experimental animals were maintained under a controlled lighting environment (12 hours lighting/12 hours non-lighting) and maintained at a temperature of 20-23° C. and about 50% relative humidity. Food and water were provided ad libitum. Mice were randomly divided into groups. The test was carried out under lighting.
MPEP (2-methyl-6-(phenylethynyl)pyridine) HCl was used as a positive control, dissolved in sterile injectable saline, and administered intraperitoneally at a dose of 30 mg/kg. MPEP was prepared at a volume of 10 ml/kg and administered 30 minutes before the test.
Test Compound was dissolved in 30% PEG 300, and two doses of 10 mg/kg and 20 mg/kg were used, Test Compound was prepared at a volume of 10 ml/kg and administered intraperitoneally 30 minutes before the test. As a negative control, a vehicle (30% PEG 300) was administered.
Vehicle, MPEP or Test Compound was administered to mice of 21 days of age 30 minutes before the test. Mice were placed in a Plexiglas chamber for 15 seconds and exposed to 135 decibels (dB) of sound. During the test for 5 minutes, the mice were scored as following criteria based on the reaction of the mouse, the time required until the reaction and the intensity of the seizure.
1: Wild running and jumping
The following endpoints were measured and observed, and in the case of animals that had no reaction, the time to reaction was set to 300 seconds for convenience in analysis.
2. Time to respiratory arrest (300 seconds if mouse survives without respiratory arrest)
Data were analyzed by ANOVA, and if appropriate, Fisher PLSD post-hoc analysis was performed. The average seizure intensity was analyzed non-parametrically. The effect was defined as significant when p<0.05. Results are represented as mean values ±standard error.

[2] = test system: Fmr1 gene-deficient mouse; experiment: Fear conditioning test (contextual and cued) in Fmr1 gene-deficient mouse model; conditions: day 6; for Freezing during contextual fear conditioning test: in comparison with the vehicle administration group
Experimental: as §1, with “Laboratories.” for “Laboratories, and audiogenic seizure experiments were performed at 3 weeks of age.”, “The drugs were administered once a day for 6 days at 8 weeks of age. The” for “The”
(§2) Test Compound was dissolved in 30% PEG 300, and two doses of 10 mg/kg and 20 mg/kg were used. Test Compound was prepared at a volume of 10 ml/kg and administered intraperitoneally 30 minutes before the test.
2. Fear conditioning test: On day 5 and day 6 of administration, and 30 minutes after administration, training and drug efficacy tests were carried out, respectively. The test was performed using a fear conditioning system manufactured by Coulbourn Instruments (PA, USA).
Training was done 30 minutes after administration on day 5 of administration. The mice were placed in a conditioning chamber and accustomed to the environment for 120 seconds, and then exposed to 6 kHz, 75 dB sound stimulus (conditioned stimulus) for 20 seconds. 30 seconds after the end of the conditioned stimulation, 0.5 mA electrostimulation shock (unconditioned stimulus) was applied to the mouse paws. Mice were left in the conditioning chamber for an additional 60 seconds and then returned to the original cage.
On the morning of day 6, 30 minutes after administration mice were placed in the same chamber as the previous day, and then trained for 5 minutes without shock or other obstructions in order to perform a drug efficacy test for contextual memory. On day 6, after 4 hours of the contextual conditioning test, a drug efficacy test was performed on cued memory by stimulus signals. The mice were exposed to a new environment for 2 minutes (before the stimulation signal), and conditions and stimulation were applied three times in total for 20 seconds. Freezing behavior was defined as the complete loss of movement and was captured using a video system and FreezeView software (Coulbourn Instrument Penn., USA). The chamber was cleaned with 70% ethanol with each mouse change.
The data were analyzed by ANOVA, and if appropriate, Fisher PLSD post-hoc analysis was performed using Statview software. The effect was defined as significant when p<0.05. Results are represented as mean values ±standard error.

[3] = test system: Fmr1 gene-deficient mouse; experiment: Open field test (locomotor activity, rearing) in Fmr1 gene-deficient mouse model; conditions: 20 mg/kg i.p. once a day, day 4 of administration; 60 minutes; in comparison with the vehicle administration group
Experimental: as §1, with “Laboratories.” for “Laboratories, and audiogenic seizure experiments were performed at 3 weeks of age.”, “The drugs were administered once a day for 6 days at 8 weeks of age. The” for “The”
as §2
1. Locomotor activity: Locomotor activity test was performed on day 4 of administration in the course of administering daily for 6 days in 8-week-old mice.
A Plexiglas square chamber (27.3×27.3×20.3 cm) surrounded by infrared rays was used to measure the horizontal and vertical movements. Mice were acclimatized to the laboratory for at least 1 hour before the test and then placed in the center of the chamber to measure activity in the open field for 1 hour. […] The distance was measured by the breakage of the horizontal light beam by the movement of the mouse. […]
The data were analyzed by ANOVA, and if appropriate, Fisher PLSD post-hoc analysis was performed using Statview software. […]

[4] = 20 mg/kg i.p. once a day, compared with the vehicle administration group

Cc1cccc(C#Cc2ccccc2)n1 [MPEP, 2-methyl-6-(phenylethynyl)pyridine, reference compound]
Percent seized ([1]; 30 mg/kg i.p.): No seizures occurred | Percent survival ([1]; 30 mg/kg i.p.): 100% | Time to seizure occurrence ([1]; 30 mg/kg i.p.): 300 s | Time to respiratory arrest ([1]; 30 mg/kg i.p.): 300 s | Median seizure score (seizure intensity level) ([1]; 30 mg/kg i.p.): significantly reduced

NC(=O)O[C@@H](Cn1ncnn1)c1ccccc1Cl [Test Compound, Carbamic acid (R)-1-(2-chlorophenyl)-2-tetrazol-2-yl-ethyl ester]
Percent seized ([1]; 10 mg/kg i.p.): No seizures occurred | Percent survival ([1]; 10 mg/kg i.p.): 100% | Time to seizure occurrence ([1]; 10 mg/kg i.p.): 300 s | Time to respiratory arrest ([1]; 10 mg/kg i.p.): 300 s | Median seizure score (seizure intensity level) ([1]; 10 mg/kg i.p.): significantly reduced | Percent seized ([1]; 20 mg/kg i.p.): No seizures occurred | Percent survival ([1]; 20 mg/kg i.p.): 100% | Time to seizure occurrence ([1]; 20 mg/kg i.p.): 300 s | Time to respiratory arrest ([1]; 20 mg/kg i.p.): 300 s | Median seizure score (seizure intensity level) ([1]; 20 mg/kg i.p.): significantly reduced | Rate of freezing in cue test, while the stimulus signal was given ([2]; 10 mg/kg i.p. once a day, compared with the vehicle administration group): significantly increased | Freezing during contextual fear conditioning test ([2]; 10 mg/kg i.p. once a day): significantly increased | Freezing in cue test, after the stimulus signal [2, 4]: significant increase | Rate of freezing in cue test, while the stimulus signal was given [2, 4]: significantly increased | Freezing during contextual fear conditioning test ([2]; 20 mg/kg i.p. once a day): significantly increased | Locomotor activity (total distance traveled) [3]: significantly decreased | Rearing activity [3]: decreased
